Results published in ChEMBL document CHEMBL4402560, “Sarco/Endoplasmic Reticulum Calcium ATPase Inhibitors: Beyond Anticancer Perspective” (J Med Chem, 2020).

Key:
[1] = molecular target: T1, Sarcoplasmic/endoplasmic reticulum calcium ATPase 1 (Oryctolagus cuniculus, UniProt P04191); assay: Inhibition of rabbit skeletal muscle microsomes SERCA1a by enzyme-coupled method
[2] = molecular target: Sarcoplasmic/endoplasmic reticulum calcium ATPase 2 (Rattus norvegicus, UniProt P11507); assay: Inhibition of rat cerebellar microsomes SERCA2b by enzyme-coupled method; design: species or system Cerebellum
Chain of Sarcoplasmic/endoplasmic reticulum calcium ATPase 2 (Rattus norvegicus, UniProt P11507) (P11507 whole entry): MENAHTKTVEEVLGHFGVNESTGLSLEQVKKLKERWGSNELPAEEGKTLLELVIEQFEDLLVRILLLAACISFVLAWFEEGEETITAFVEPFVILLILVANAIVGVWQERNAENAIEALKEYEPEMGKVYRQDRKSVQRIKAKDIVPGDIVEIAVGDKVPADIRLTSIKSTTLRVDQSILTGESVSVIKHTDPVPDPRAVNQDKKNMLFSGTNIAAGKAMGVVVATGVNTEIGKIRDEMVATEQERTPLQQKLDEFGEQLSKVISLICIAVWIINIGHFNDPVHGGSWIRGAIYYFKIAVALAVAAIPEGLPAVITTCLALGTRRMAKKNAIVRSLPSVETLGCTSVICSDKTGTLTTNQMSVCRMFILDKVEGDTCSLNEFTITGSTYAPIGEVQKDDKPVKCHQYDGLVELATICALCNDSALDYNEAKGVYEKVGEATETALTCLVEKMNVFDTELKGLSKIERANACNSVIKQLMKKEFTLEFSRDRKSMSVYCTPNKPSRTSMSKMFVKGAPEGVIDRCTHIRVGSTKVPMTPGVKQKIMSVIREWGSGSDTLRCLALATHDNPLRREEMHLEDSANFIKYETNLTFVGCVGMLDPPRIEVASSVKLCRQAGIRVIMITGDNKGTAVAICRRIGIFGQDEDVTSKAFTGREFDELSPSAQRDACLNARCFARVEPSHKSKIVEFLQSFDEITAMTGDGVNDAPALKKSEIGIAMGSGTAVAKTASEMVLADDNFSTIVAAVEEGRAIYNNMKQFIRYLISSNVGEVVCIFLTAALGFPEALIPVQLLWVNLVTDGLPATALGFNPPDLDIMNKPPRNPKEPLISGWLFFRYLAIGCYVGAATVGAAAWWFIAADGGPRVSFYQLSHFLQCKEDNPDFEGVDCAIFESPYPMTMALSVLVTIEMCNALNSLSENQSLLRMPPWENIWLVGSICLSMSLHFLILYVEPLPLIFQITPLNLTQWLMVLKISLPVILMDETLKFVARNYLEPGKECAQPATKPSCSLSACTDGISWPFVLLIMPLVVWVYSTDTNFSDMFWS

[3] = molecular target: T1, Sarcoplasmic/endoplasmic reticulum calcium ATPase 1; assay: Inhibition of rabbit microsomes SERCA1a by enzyme-coupled method
[4] = Inhibition of fish liver microsomes SERCA by enzyme-coupled method; design: species or system Squalius cephalus
[5] = molecular target: T1, Sarcoplasmic/endoplasmic reticulum calcium ATPase 1; assay: Inhibition of rabbit SERCA1a preincubated for 10 mins followed by addition of ATP and measured after 10 mins by colorimetric method
[6] = Inhibition of Porcine cerebellar microsomes SERCA preincubated for 10 mins followed by addition of ATP and measured after 10 mins by colorimetric method; design: species or system Sus scrofa domesticus, Cerebellum
[7] = Inhibition of Porcine cardiac microsomes SERCA preincubated for 10 mins followed by addition of ATP and measured after 10 mins by colorimetric method; design: species or system Sus scrofa domesticus, Heart
Sus scrofa domesticus = organism: Sus scrofa domesticus; assay: Inhibition of Porcine cerebellar microsomes SERCA at 200 uM preincubated for 10 mins followed by addition of ATP and measured after 10 mins by colorimetric method relative to control; conditions: Cerebellum
[8] = molecular target: T1, Sarcoplasmic/endoplasmic reticulum calcium ATPase 1; assay: Inhibition of rabbit skeletal muscle microsomes SERCA1a incubated for 10 mins by enzyme-coupled method
[9] = molecular target: T1, Sarcoplasmic/endoplasmic reticulum calcium ATPase 1; assay: Inhibition of rabbit skeletal muscle microsomes SERCA1a
[10] = molecular target: T1, Sarcoplasmic/endoplasmic reticulum calcium ATPase 1; assay: Inhibition of rabbit skeletal muscle microsomes FITC-labelled SERCA1a incubated for 1 hr by fluorescence spectrophotometric method
[11] = Inhibition of porcine cerebellar microsomes FITC-labelled SERCA2b incubated for 1 hr by fluorescence spectrophotometric method
[12] = Inhibition of porcine cerebellar microsomes SERCA2b by enzyme-coupled method; design: species or system Sus scrofa domesticus, Cerebellum
[13] = Inhibition of porcine cardiac microsomes SERCA2a by enzyme-coupled method; design: species or system Sus scrofa domesticus, Heart
[14] = molecular target: T2, Sarcoplasmic/endoplasmic reticulum calcium ATPase 2 (Homo sapiens, UniProt P16615); assay: Inhibition of SERCA2b in human platelet microsomes by enzyme-coupled method
T2 sequence (P16615 whole entry): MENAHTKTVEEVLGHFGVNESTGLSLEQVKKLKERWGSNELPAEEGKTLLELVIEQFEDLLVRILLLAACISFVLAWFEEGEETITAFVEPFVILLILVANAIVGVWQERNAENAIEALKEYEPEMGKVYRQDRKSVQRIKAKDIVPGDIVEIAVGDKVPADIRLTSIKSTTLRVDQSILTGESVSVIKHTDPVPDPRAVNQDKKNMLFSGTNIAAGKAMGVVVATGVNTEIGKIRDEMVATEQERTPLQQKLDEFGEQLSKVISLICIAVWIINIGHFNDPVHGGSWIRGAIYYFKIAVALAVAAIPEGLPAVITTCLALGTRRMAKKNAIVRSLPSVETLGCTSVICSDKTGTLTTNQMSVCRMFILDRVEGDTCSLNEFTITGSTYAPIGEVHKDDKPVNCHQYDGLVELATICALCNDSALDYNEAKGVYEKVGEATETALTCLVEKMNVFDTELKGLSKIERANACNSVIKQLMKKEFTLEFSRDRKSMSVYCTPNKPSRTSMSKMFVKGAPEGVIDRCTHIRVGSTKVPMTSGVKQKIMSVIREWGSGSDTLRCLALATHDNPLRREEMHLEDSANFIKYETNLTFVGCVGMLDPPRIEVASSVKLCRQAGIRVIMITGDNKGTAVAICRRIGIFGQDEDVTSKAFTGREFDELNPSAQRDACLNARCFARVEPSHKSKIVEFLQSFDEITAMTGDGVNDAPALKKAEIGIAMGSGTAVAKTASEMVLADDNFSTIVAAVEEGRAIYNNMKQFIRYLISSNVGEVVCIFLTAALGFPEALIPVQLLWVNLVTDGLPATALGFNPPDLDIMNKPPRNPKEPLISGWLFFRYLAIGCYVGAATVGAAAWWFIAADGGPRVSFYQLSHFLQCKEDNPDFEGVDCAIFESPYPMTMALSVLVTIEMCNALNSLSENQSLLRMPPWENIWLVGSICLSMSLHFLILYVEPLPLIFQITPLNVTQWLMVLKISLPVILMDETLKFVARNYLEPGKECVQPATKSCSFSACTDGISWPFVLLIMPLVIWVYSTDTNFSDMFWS

[15] = molecular target: T3, Sarcoplasmic/endoplasmic reticulum calcium ATPase 3 (Homo sapiens, UniProt Q93084); assay: Inhibition of SERCA3 in human platelet microsomes by enzyme-coupled method
T3 sequence (Q93084 whole entry): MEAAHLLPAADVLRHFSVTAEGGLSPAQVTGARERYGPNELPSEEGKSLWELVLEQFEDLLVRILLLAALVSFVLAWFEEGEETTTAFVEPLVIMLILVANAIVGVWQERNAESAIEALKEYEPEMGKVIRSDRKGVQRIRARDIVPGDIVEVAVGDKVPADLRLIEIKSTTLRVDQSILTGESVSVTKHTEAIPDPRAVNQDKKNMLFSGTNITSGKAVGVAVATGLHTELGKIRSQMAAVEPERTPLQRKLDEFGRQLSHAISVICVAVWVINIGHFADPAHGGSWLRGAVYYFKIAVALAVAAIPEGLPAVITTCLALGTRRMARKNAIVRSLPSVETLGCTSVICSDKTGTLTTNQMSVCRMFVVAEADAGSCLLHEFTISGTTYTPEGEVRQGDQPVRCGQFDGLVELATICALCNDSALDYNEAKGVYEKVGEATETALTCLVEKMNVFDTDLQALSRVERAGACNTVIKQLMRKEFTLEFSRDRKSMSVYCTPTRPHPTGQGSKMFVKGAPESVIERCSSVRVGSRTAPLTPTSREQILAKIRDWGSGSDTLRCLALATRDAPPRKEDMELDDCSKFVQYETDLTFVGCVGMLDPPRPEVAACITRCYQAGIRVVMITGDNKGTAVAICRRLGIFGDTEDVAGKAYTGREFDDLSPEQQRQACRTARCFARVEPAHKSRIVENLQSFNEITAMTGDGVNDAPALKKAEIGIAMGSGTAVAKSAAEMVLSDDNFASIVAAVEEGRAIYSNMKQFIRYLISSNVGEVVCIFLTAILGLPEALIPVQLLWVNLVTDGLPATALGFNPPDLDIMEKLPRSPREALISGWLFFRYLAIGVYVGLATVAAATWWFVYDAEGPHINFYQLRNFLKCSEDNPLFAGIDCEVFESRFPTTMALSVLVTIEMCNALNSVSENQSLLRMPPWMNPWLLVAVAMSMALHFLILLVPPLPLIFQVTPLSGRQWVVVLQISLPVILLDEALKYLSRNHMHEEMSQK

[16] = molecular target: T1, Sarcoplasmic/endoplasmic reticulum calcium ATPase 1; assay: Inhibition of rabbit SERCA1b expressed in COS7 cells microsomal membranes preincubated for 10 mins followed by addition of ATP and measured after 40 mins by ELISA method; assay type: cell-based
[17] = molecular target: T2, Sarcoplasmic/endoplasmic reticulum calcium ATPase 2; assay: Inhibition of human SERCA2b expressed in COS7 cells microsomal membranes preincubated for 10 mins followed by addition of ATP and measured after 40 mins by ELISA method; assay type: cell-based
[18] = molecular target: T3, Sarcoplasmic/endoplasmic reticulum calcium ATPase 3; assay: Inhibition of human SERCA3a expressed in COS7 cells microsomal membranes preincubated for 10 mins followed by addition of ATP and measured after 40 mins by ELISA method; assay type: cell-based
[19] = molecular target: T1, Sarcoplasmic/endoplasmic reticulum calcium ATPase 1; assay: Inhibition of SERCA1 in rabbit skeletal muscle microsomes assessed as decrease in NADH absorbance by NADH-coupled enzyme assay; design: species or system Muscle tissue
[20] = molecular target: T2, Sarcoplasmic/endoplasmic reticulum calcium ATPase 2; assay: Inhibition of SERCA2a (unknown origin)
MIA PaCa-2 = assay: Antiproliferative activity against human MIAPaCa2 cells; assay type: functional, cell-based
BJ = assay: Antiproliferative activity against human BJ cells; assay type: functional, cell-based
MRC5 = assay: Antiproliferative activity against human MRC5 cells; assay type: functional, cell-based
[21] = molecular target: T1, Sarcoplasmic/endoplasmic reticulum calcium ATPase 1; assay: Inhibition of rabbit skeletal muscle microsomes SERCA1a preincubated for 10 mins followed by addition of ATP and measured after 30 mins
[22] = Inhibition of SERCA (unknown origin); design: species or system Homo sapiens
[23] = molecular target: T1, Sarcoplasmic/endoplasmic reticulum calcium ATPase 1; assay: Inhibition of rabbit skeletal muscle microsomes SERCA1a by malachite green based colorimetric method

T1 sequence (P04191 whole entry): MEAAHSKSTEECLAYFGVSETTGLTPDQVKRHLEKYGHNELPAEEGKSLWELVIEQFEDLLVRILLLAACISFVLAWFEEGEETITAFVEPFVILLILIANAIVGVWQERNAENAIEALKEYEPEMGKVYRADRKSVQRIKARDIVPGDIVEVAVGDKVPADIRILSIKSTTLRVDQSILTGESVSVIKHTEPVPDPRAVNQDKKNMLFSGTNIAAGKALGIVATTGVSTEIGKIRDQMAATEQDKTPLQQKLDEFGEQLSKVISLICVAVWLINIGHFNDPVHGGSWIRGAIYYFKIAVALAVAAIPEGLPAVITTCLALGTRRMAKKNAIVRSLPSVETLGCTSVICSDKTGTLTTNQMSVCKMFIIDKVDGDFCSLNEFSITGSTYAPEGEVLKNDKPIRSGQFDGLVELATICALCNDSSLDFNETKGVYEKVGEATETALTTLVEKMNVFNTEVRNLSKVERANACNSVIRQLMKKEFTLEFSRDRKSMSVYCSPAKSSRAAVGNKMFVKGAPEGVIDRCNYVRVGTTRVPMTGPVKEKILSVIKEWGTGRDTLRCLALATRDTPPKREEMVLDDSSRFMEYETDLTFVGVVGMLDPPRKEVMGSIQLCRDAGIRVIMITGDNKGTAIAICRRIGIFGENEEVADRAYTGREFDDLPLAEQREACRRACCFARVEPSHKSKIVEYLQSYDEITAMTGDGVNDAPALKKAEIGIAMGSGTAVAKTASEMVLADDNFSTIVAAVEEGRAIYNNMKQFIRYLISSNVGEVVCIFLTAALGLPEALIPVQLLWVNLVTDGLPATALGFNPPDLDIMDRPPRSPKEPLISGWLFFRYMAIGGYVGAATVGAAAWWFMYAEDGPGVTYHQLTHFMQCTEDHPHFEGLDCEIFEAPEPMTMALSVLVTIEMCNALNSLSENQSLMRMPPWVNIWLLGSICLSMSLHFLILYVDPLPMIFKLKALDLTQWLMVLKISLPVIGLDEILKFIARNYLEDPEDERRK

Which results are given for `CC(C)(c1ccc(O)cc1)c1ccc(O)cc1` [BISPHENOL A]?
IC50 [1]: 2 µM; IC50 [2]: 2 µM; IC50 [3]: 233 µM; IC50 [4]: 233 µM

What does the source list for `CO[C@H]1C[C@@H]2CC[C@@H](C)[C@@](O)(O2)C(=O)C(=O)N2CCCC[C@H]2C(=O)O[C@H]([C@H](C)C[C@@H]2CC[C@@H](O)[C@H](OC)C2)CC(=O)[C@H](C)/C=C(\C)[C@@H](O)[C@@H](OC)C(=O)[C@H](C)C[C@H](C)/C=C/C=C/C=C/1C` [SIROLIMUS]?
IC50 [5]: 77 µM; IC50 [6]: 77 µM; IC50 [7]: 77 µM; inhibition (Sus scrofa domesticus): 80%

With `OCCN1CCN(CCCN2c3ccccc3Sc3ccc(C(F)(F)F)cc32)CC1` [FLUPHENAZINE] as the compound, how does the IC50 [8] read?
Its IC50 is 15 µM.

With `O=C(O[C@@H]1Cc2c(O)cc(O)cc2O[C@@H]1c1cc(O)c(O)c(O)c1)c1cc(O)c(O)c(O)c1` [EPIGALOCATECHIN GALLATE] as the compound, how does the IC50 [9] read?
Its IC50 is 12 µM.

For `NCCOB(c1ccccc1)c1ccccc1`, which IC50 [10] is on record?
Its IC50 is 70 to 700 µM.

And the IC50 [11]?
The IC50 was 70 to 700 µM.

Which IC50 [8] does the source give for `CN1CCN(CCCN2c3ccccc3Sc3ccc(C(F)(F)F)cc32)CC1` [TRIFLUOPERAZINE] here?
Its IC50 is 45 µM.

Which IC50 [1] does the source give for `CC(C)(O)[C@H]1O[C@H]2CC[C@@]3(C)[C@@](O)(CC[C@H]4Cc5c([nH]c6ccccc56)[C@@]43C)C2=CC1=O` [PAXILLINE] here?
Its IC50 is 5 µM.

What about the IC50 [12] of the same compound?
Its IC50 is 5 µM.

And the IC50 [13]?
Its IC50 is 5 µM.

And the IC50 [14]?
The IC50 was 5 µM.

What about the IC50 [15] of the same compound?
The IC50 was 5 µM.

For `COc1cc(/C=C/C(=O)CC(=O)/C=C/c2ccc(O)c(OC)c2)ccc1O` [CURCUMIN], which Ki [16] is on record?
The Ki was 5.8 µM.

What about the Ki [17] of the same compound?
The Ki was 53 µM.

What about the Ki [18] of the same compound?
Its Ki is 8.6 µM.

And the IC50 [1]?
The IC50 was 3 to 15 µM.

What about the IC50 [12] of the same compound?
Its IC50 is 7 to 15 µM.

And the IC50 [13]?
Its IC50 is 7 to 15 µM.

What about the IC50 [14] of the same compound?
Its IC50 is 7 to 15 µM.

And the IC50 [15]?
Its IC50 is 7 to 15 µM.

For `CCCCCCCCCCCCCCCCCC(=O)O[C@@H]1[C@@H](O)[C@@H](O)[C@H](OC[C@H]2O[C@@H](Oc3c(-c4ccc(O)c(O)c4)oc4cc(O)cc(O)c4c3=O)[C@H](O)[C@@H](O)[C@@H]2O)O[C@H]1C`, which IC50 [19] is on record?
Its IC50 is 35 µM.

For `C/C=C/C/C(C)=C\[C@H]1C/C=C/C=C/C[C@H](C)/C=C(\C)[C@@H](OC)C/C=C/[C@@H](O)CC(=O)O1`, which Ki [9] is on record?
The Ki was 0.017 µM.

And the Ki [20]?
Its Ki is 0.027 µM.

With `C/C=C(/C)C(=O)O[C@@H]1C[C@H]2C(=C1C)[C@@H]1OC(=O)[C@@](C)(O)[C@@]1(O)[C@@H](OC(=O)CCCCn1cc([C@]3(O)CC[C@H]4[C@@H]5CCC6=CC(O)CC[C@]6(C)[C@H]5CC[C@@]43C)nn1)C[C@]2(C)OC(C)=O` (stereo partly drawn) as the compound, how does the IC50 (MIA PaCa-2) read?
The IC50 was 13.7 to 50 µM.

And the IC50 (BJ)?
Its IC50 is 13.7 to 50 µM.

And the IC50 (MRC5)?
Its IC50 is over 50 µM.

Which IC50 [9] does the source give for `CC[C@H](C)[C@H](NC(=O)CCCCCNC(=O)[C@H](Cc1ccc(O)cc1)NC(=O)[C@H](CCCNC(=N)N)NC(=O)[C@@H]1CCCN1C(=O)[C@H](CCCNC(=N)N)NC(=O)[C@H](CC(N)=O)NC(=O)[C@H](CCC(N)=O)NC(=O)[C@@H](Cc1ccc(O)cc1)N(C)C(=O)Cc1ccccc1)C(=O)N[C@@H](CC(N)=O)C(=O)N[C@@H](CC(C)C)C(=O)N[C@@H](CCCCN)C(=O)N[C@@H](C)C(=O)N[C@@H](CC(C)C)C(=O)N[C@@H](C)C(=O)N[C@@H](C)C(=O)N[C@@H](CC(C)C)C(=O)N[C@@H](C)C(=O)N[C@@H](CCCCN)C(=O)N[C@@H](CCCCN)C(=O)N[C@H](C(=O)N[C@@H](CC(C)C)C(N)=O)[C@@H](C)CC` here?
Its IC50 is 0.27 to 0.3 µM.

For `Cc1cc(O)ccc1Cl` [CHLOROCRESOL], which IC50 [21] is on record?
The IC50 was 2800 µM.

Which IC50 [3] does the source give for `CC/C(=C(/CC)c1ccc(O)cc1)c1ccc(O)cc1` [DIETHYLSTILBESTROL] here?
The IC50 was 14 to 20 µM.

And the IC50 [4]?
Its IC50 is 7 to 20 µM.

And the IC50 [22]?
The IC50 was 15 µM.

For IVERMECTIN, which IC50 [6] is on record?
The IC50 was 15 µM.

And the IC50 [7]?
Its IC50 is 15 µM.

Which IC50 [23] does the source give for `Clc1cccc(C(Nc2ccnc3cc(Cl)ccc23)c2ccc(CN3CCN(c4ccnc5cc(Cl)ccc45)CC3)cc2)c1` (stereo not drawn) here?
The IC50 was 1.3 µM.

Which IC50 [8] does the source give for `CN(C)CCCN1c2ccccc2Sc2ccc(Cl)cc21` [CHLORPROMAZINE] here?
The IC50 was 23 µM.

With `CC[C@H](C)[C@H](N)C(=O)N[C@@H](CC(N)=O)C(=O)N[C@@H](CC(C)C)C(=O)N[C@@H](CCCCN)C(=O)N[C@@H](C)C(=O)N[C@@H](CC(C)C)C(=O)N[C@@H](C)C(=O)N[C@@H](C)C(=O)N[C@@H](CC(C)C)C(=O)N[C@@H](C)C(=O)N[C@@H](CCCCN)C(=O)N[C@@H](CCCCN)C(=O)N[C@H](C(=O)N[C@@H](CC(C)C)C(=O)O)[C@@H](C)CC` as the compound, how does the Ki [1] read?
The Ki was 1 µM.

With `CCOC(=O)CC1C(C(=O)OCC)=C(N)Oc2ccc(-c3cc(OC)cc(OC)c3)cc21` (stereo not drawn) as the compound, how does the IC50 [9] read?
The IC50 was 13.5 µM.
